Laboratory results taken from US20030060438A1, “Oligonucleotides and other modulators of the NK-1 receptor pathway and therapeutic uses thereof” (priority 2000, published 2003).

Tests used:
NK-1 receptor [1] = assay: Substance P-induced thermal hyperalgesia, intrathecal oligonucleotide; assay type: in vivo; conditions: intrathecal 75 micro grams/10 microlitres Q12h with SP
Experimental: The effect of intrathecal (spinal) administration of NK-1 receptor antisense oligonucleotide on substance P-induced thermal hyperalgesia is shown in FIG. 1.
Latency to thermal stimulation (baseline (B) recordings) was assessed prior to intrathecal injection of substance P (SP, indicated by the arrow in both upper and lower panels). On day 0 (before oligonucleotide treatment has begun), SP (6.7 nmol/10 microlitres) produced a decrease in thermal latency to response indicating the occurrence of hyperalgesia (exaggerated response to noxious or painful stimulation, hollow symbols on both upper and lower panels). Oligonucleotide treatment (75 micro grams/10 microlitres, Q12h for 6 days) or ASCF control (artificial cerebral spinal fluid) was commenced subsequent to assessment of substance P-induced thermal hyperalgesia on day 0. Intrathecal SP (6.7 nmol/10 microlitres, Q12h for 6 days) was administered, in addition to the oligonucleotide, to stimulate NK-1 receptor turnover. Three days after twice-daily injections of antisense (AS) were begun, SP-induced thermal hyperalgesia was attenuated (upper graph, triangles). […] Statistical analysis was performed by a two way ANOVA with time and treatment as independent measures. Time: F(6,21)=10.234, p<0.01, Treatment: F(6,21)=8.245, p<0.05.

NK-1 receptor [2] = assay: Mechanical response thresholds in naive rats, intrathecal oligonucleotide; assay type: in vivo, rat; conditions: no surgery; intrathecal 1 micro grams/microlitres/h, prolonged administration
Experimental: The effect of intrathecal administration of NK-1 receptor antisense oligonucleotide on mechanical response thresholds in naive rats is shown in FIG. 6.
Oligonucleotides or ASCF control (artificial cerebral spinal fluid) were administered for 2 days prior to surgery, and throughout the time course of testing, by continuous infusion (1 micro grams/microlitres/h) via Alzet® minipumps attached to intrathecal catheters for spinal delivery.

NK-1 receptor [3] = assay: Western blot of NK-1 receptor protein in lumbar spinal cord after intrathecal oligonucleotide, neuropathic pain model; assay type: in vivo, rat; conditions: intrathecal 2 micro grams/microlitres/h, 48 h prior to sciatic nerve constriction and continuously for 6 days
Experimental: Oligonucleotides or ASCF control (artificial cerebral spinal fluid) was administered for 48 h prior to sciatic nerve constriction and continuously for 6 days (2 micro grams/microlitres/h) via Alzet® minipumps attached to intrathecal catheters for spinal delivery. Rats were sacrificed by decapitation and lumbar spinal cords were dissected and processed for Western blotting analysis. Samples were resolved using 10% Tris-glycine gels and the proteins were electroblotted onto nitrocellulose membranes. Molecular mass markers are presented in the right column. The arrow indicates the NK-1 receptor.

NK-1 receptor [4] = assay: CFA ankle joint arthritis model, ankle circumference, intrathecal oligonucleotide; assay type: in vivo, rat; conditions: intrathecal 1 micro grams/microlitres/h from 48 h prior to CFA injection; vs ACSF or MIS
Experimental: Complete Freund's Adjuvant (CFA) injection into the ankle joint of the rat produces two responses, an inflammatory response that begins within 24 hours and lasts approximately one week, and a later inflammatory response combined with symptoms modelling arthritis. Oligonucleotides or ASCF control (artificial cerebral spinal fluid) was administered for 48 h prior to CFA injection and continuously for the testing days (1 micro grams/microlitres/h) via Alzet® minipumps attached to intrathecal catheters for spinal delivery. […] Statistical analysis was performed using a one way ANOVA and post hoc analysis using the Dunnett's test.

NK-1 receptor [5] = assay: CFA ankle joint arthritis model, ankle circumference, systemic oligonucleotide; assay type: in vivo, rat; conditions: 300 micro grams/kg, Q12 h, intraperitoneal from 2 days prior to CFA
Experimental: Complete Freund's Adjuvant (CFA) injection (13.6 micro grams/25 microlitres) into the ankle joint of the rat produces two responses, an inflammatory response that begins within 24 hours and lasts approximately one week, and a later inflammatory response combined with symptoms modeling arthritis. Antisense (AS) oligonucleotide (300 micro grams/kg, Q12 h, intraperitoneal) or saline was administered for 2 days prior to CFA injection and throughout the time course of testing. In control animals CFA induces two phases of response as assessed by ankle circumference; the first is maximal at 48 h after injection and the second at day 18. […] Statistical analysis was performed using a two way ANOVA and post hoc analysis using the tukey's test.

NK-1 receptor [6] = assay: CFA arthritis model, joint flexibility, systemic oligonucleotide; assay type: in vivo, rat; conditions: day 18 after CFA; 300 micro grams/kg, Q12 h, intraperitoneal
Experimental: Complete Freund's Adjuvant (CFA) was injected into the ankle joint of the rat and the flexibility of the affected joint was assessed on day 18 during the arthritic phase of the model. This was accomplished by measuring the difference between the extension and flexion of the affected joint. Antisense (AS) oligonucleotide (300 micro grams/kg, Q12 h, intraperitoneal) or saline was administered for 2 days prior to CFA injection and for the subsequent 18 days. […] Statistical analysis was performed using a one way ANOVA and post hoc analysis using the Dunnett's test.

NK-1 receptor [7] = assay: CFA arthritis model, collagen breakdown products in plasma, systemic oligonucleotide; assay type: in vivo, rat; conditions: days 3 and 18 following CFA injection; 300 micro grams/kg, Q12 h, intraperitoneal
Experimental: Complete Freund's Adjuvant (CFA) was injected into the ankle joint of the rat and the levels of collagen breakdown products were assessed on days 3 and 18 following CFA injection. This was accomplished by measuring collagen degradation in the plasma of blood samples taken from the tail vein of rats while lightly anesthetized with halothane anesthesia. Antisense (AS) oligonucleotide (300 micro grams/kg, Q12 h, intraperitoneal) or saline was administered for 2 days prior to CFA injection and for the subsequent 18 days. […] (Pervious experiments have identified that the levels of collagen breakdown products are maximal at day 3-5 after CFA injection). Statistical analysis was performed using an unpaired t-test.

NK-1 receptor [8] = assay: Zymosan model of inflammatory bowel disease, Evans blue plasma extravasation of the colon; assay type: in vivo, rat; conditions: 300 micro grams/kg, Q12 h, intraperitoneal for 6 days prior to rectal zymosan; Evans blue three hours after zymosan
Experimental: Inflammatory bowel disease (IBD) is a generic term used to describe major clinical entities including Crohn's disease and ulcerative colitis. IBD was simulated by rectal administration of zymosan, a complement-activating substance. Antisense (AS) oligonucleotide (300 micro grams/kg, Q12 h, intraperitoneal) or saline was administered for 6 days prior to zymosan administration. Three hours after administration of zymosan, rats are injected with Evans blue dye which enables the assessment of plasma extravasation of the colon (degree of inflammation). […] Statistical analysis was performed using an unpaired t-test.

## 5′gac gtt atc cat ttt ggg g3′ (antisense GACGTTATCCATTTTGGGG; listed as DNA, chemistry not fully specified) [NK-1 receptor antisense oligonucleotide used in all experiments]
NK-1 receptor [1]; six days after start
  SP-induced thermal hyperalgesia (thermal latency): further decrease in the response to SP
NK-1 receptor [1]; three days after start
  SP-induced thermal hyperalgesia (thermal latency): attenuated
NK-1 receptor [2]
  mechanical response (withdrawal) threshold of either hind limb in naive rats: had no effect
NK-1 receptor [3]
  NK-1 receptor protein expression (Western blot) compared to ACSF control: significantly attenuates the protein expression
NK-1 receptor [4]
  magnitude of inflammation, measured as ankle circumference: less
NK-1 receptor [5]; first phase maximal at 48 h
  magnitude of inflammation, measured as ankle circumference, first phase: less
NK-1 receptor [5]; second phase maximal at day 18
  magnitude of inflammation, measured as ankle circumference, second phase: less
NK-1 receptor [6]
  joint flexibility (difference between extension and flexion) compared to saline controls: significantly improved flexibility
  joint flexibility compared to naïve animals: not significantly different
NK-1 receptor [7]
  collagen breakdown products in plasma compared to saline controls: significant attenuation
NK-1 receptor [8]
  zymosan-induced plasma extravasation of the colon: significantly lower
